Assays:
Assay in all cases: DiscoverX KINOMEscan competition binding assay
BRAF = target: T1, BRAF (Homo sapiens, UniProt P15056); conditions: for % control, BRAF (DiscoverX): compound 10 µM, lower values = higher affinity, below 35% = significant binding
T1 construct: purchased DiscoverX (KINOMEscan service); host or cells: E. coli BL21-derived host (T7 phage) or HEK-293
Experimental: (§1) Ligand binding experiments for the molecules selected from Profiles 1 and 2 towards nine kinases (EGFR, ErbB2, LCK, CDK2, BRAF, MET, p38α, PI3K and VEGFR2) and for molecules selected from Profiles 3 and 4 towards four kinases (EGFR, ErbB2, BRAF and VEGFR2) were carried out by DiscoverX using the supplied protocol as described in the Supplementary Materials. Briefly, ligand affinity was measured by competition with a resin-bound standard ligand and washed-off kinase concentration was determined via qPCR.
(§2) Summarizing, binding of a compound to a kinase was tested in comparison to a control compound (see Table S2). […]
(§3) 1.1. DiscoverX kinase assay
(§4) For most assays, kinase-tagged T7 phage strains were grown in parallel in 24-well blocks in an E.coli host derived from the BL21 strain. E.coli were grown to log-phase and infected with T7 phage from a frozen stock (multiplicity of infection = 0.4) and incubated with shaking at 32°C until lysis (90-150 minutes). The lysates were centrifuged (6,000 x g) and ﬁltered (0.2µm) to remove cell debris.
(§5) The remaining kinases were produced in HEK-293 cells and subsequently tagged with DNA for qPCR detection. Streptavidin-coated magnetic beads were treated with biotinylated small molecule ligands for 30 minutes at room temperature to generate afﬁnity resins for the kinases. The liganded beads were blocked with excess biotin and washed with blocking buffer (SeaBlock [Pierce], 1% BSA, 0.05% Tween 20, 1 mM DTT) to remove unbound ligands and to reduce non-speciﬁc phage binding. Binding reactions were assembled by combining kinases, liganded afﬁnity beads, and test compounds in 1x binding buffer (20% SeaBlock, 0.17x PBS, 0.05% Tween 20, 6 mM DTT). Test compounds were prepared as 40x stocks in 100% DMSO and directly diluted into the assay. All reactions were performed in polypropylene 384-well plates in a ﬁnal volume of 0.02 ml. The assay plates were incubated at room temperature with shaking for 1 hour and the afﬁnity beads were washed with wash buffer (1x PBS, 0.05% Tween 20). The beads were then re-suspended in elution buffer (1x PBS, 0.05% Tween 20, 0.5 µM non-biotinylated afﬁnity ligand) and incubated at room temperature with shaking for 30 minutes. The kinase concentration in the eluates was measured by qPCR. […]
(§6) Table S2. Experimental % control values from the DiscoverX kinase assay. Compounds were tested against the nine kinases EGFR, ErbB2, LCK, CDK2, BRAF, MET, p38α, PI3K and VEGFR2, unless otherwise stated. Binding of kinase and compound were tested at a compound concentration of 10 µM and in comparison to a control compound. Lower values indicate a higher afﬁnity of the compound to the protein and values below 35% indicate signiﬁcant binding according to information of the CRO. […]
(§7) a Compounds were only tested against four kinases (EGFR, ErbB2, BRAF and VEGFR2). b Compound was selected independently from two docking proﬁles and tested separately during

EGFR = target: T2, EGFR (Homo sapiens, UniProt P00533); conditions: compound 10 µM; lower values = higher affinity; below 35% = significant binding
T2 construct: purchased DiscoverX (KINOMEscan service); host or cells: E. coli BL21-derived host (T7 phage) or HEK-293
T2 sequence (P00533 25-1210): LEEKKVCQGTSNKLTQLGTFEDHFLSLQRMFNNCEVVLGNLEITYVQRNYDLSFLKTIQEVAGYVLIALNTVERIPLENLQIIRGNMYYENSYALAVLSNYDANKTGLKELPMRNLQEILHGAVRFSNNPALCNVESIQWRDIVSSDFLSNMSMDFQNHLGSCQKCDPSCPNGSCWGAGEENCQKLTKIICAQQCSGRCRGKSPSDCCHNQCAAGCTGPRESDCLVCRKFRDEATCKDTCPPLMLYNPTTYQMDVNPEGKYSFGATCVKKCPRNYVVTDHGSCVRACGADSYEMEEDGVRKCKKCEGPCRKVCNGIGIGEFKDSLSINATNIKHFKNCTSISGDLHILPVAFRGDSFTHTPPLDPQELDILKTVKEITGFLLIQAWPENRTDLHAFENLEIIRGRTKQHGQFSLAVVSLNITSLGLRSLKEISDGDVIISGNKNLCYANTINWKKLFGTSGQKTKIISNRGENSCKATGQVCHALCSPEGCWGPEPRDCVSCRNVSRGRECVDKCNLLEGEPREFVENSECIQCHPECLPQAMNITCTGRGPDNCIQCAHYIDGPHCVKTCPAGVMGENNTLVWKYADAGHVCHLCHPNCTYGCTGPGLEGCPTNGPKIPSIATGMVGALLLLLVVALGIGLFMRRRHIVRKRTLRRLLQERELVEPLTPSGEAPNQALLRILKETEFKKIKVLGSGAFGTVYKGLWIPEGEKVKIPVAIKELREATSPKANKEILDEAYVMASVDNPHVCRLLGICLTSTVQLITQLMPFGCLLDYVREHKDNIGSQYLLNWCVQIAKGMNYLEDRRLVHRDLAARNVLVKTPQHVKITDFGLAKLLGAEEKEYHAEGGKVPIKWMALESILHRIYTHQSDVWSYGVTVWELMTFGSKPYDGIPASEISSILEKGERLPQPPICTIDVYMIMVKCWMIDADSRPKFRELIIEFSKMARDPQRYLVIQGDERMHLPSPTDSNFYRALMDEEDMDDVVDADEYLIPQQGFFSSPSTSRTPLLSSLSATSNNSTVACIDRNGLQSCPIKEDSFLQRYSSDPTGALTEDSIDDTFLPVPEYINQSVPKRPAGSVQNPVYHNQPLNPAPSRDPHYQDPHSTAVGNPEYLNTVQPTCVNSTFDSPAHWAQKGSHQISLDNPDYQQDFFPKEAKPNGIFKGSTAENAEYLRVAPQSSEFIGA
Experimental: as §1, §2, §3, §4, §5, §6, §7

ErbB2 = target: T3, ErbB2 (Homo sapiens, UniProt P04626); conditions: compound 10 µM; lower values = higher affinity; below 35% = significant binding
T3 construct: purchased DiscoverX (KINOMEscan service); host or cells: E. coli BL21-derived host (T7 phage) or HEK-293
T3 sequence (P04626 23-1255): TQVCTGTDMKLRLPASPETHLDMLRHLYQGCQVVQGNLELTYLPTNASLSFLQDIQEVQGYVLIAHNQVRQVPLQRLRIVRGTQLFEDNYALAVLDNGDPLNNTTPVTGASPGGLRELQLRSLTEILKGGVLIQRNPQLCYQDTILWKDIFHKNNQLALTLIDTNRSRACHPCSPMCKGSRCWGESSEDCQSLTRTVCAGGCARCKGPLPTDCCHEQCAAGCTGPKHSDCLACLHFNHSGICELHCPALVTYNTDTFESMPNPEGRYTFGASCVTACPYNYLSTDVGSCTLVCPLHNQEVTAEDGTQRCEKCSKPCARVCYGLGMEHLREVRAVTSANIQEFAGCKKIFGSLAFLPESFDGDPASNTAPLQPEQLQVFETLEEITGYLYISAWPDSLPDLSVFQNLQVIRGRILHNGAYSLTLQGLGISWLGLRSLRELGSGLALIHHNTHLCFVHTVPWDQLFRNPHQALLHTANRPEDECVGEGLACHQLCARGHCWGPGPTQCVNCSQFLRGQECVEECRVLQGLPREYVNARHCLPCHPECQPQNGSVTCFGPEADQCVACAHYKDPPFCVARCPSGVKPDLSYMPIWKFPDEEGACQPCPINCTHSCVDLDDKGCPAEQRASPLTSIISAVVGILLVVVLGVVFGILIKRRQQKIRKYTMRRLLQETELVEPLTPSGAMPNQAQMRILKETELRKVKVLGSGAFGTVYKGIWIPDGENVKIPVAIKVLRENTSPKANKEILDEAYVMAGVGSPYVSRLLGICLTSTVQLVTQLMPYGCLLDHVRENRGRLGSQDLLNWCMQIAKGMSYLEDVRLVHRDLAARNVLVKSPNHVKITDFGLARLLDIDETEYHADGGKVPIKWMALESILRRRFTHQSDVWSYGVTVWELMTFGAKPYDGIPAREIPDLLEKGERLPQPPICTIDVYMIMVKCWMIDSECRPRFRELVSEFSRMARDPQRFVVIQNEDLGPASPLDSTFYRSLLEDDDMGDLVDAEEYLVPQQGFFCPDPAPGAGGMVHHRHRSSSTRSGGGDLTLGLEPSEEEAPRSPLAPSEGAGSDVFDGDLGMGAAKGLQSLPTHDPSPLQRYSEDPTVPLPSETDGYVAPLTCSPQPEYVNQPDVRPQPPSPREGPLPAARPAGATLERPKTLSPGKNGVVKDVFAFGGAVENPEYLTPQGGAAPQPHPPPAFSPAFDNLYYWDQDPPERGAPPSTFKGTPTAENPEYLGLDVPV
Experimental: as §1, §2, §3, §4, §5, §6, §7

VEGFR2 = target: T4, VEGFR2 (Homo sapiens, UniProt P35968); conditions: compound 10 µM; lower values = higher affinity; below 35% = significant binding
T4 construct: purchased DiscoverX (KINOMEscan service); host or cells: E. coli BL21-derived host (T7 phage) or HEK-293
T4 sequence (P35968 20-1356): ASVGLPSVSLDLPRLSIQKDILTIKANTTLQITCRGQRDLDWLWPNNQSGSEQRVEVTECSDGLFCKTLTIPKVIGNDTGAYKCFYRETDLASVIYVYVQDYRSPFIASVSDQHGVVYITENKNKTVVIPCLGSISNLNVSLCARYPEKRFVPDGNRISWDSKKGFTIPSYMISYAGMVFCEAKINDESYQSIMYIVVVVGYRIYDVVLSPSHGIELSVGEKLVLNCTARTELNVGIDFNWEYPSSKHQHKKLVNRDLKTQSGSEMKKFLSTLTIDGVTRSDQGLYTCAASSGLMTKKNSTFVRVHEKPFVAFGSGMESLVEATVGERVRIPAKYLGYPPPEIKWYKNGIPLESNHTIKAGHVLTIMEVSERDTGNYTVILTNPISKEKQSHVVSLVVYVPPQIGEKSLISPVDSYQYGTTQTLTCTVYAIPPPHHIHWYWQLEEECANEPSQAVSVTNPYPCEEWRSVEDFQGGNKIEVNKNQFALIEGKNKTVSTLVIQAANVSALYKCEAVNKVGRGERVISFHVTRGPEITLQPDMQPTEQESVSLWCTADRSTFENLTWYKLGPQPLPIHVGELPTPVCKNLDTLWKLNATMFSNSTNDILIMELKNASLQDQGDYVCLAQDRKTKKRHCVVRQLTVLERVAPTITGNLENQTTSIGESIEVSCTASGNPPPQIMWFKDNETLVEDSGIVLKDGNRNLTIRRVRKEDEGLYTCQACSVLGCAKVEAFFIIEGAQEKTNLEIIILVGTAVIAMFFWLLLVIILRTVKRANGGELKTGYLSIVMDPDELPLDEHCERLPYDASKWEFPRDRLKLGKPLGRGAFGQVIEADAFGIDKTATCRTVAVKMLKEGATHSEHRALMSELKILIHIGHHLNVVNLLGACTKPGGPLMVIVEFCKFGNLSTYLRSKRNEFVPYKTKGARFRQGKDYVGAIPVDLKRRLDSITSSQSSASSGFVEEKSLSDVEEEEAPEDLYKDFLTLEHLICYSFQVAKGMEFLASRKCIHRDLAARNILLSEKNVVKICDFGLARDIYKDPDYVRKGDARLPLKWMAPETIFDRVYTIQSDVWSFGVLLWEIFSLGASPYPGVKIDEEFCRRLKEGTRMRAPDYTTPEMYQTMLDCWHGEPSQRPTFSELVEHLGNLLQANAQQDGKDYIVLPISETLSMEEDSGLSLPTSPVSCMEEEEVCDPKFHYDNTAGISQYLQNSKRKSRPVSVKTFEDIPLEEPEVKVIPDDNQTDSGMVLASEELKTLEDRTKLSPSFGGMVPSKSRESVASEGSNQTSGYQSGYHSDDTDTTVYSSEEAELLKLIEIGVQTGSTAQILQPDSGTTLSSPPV
Experimental: as §1, §2, §3, §4, §5, §6, §7

T1 sequence (P15056 whole entry): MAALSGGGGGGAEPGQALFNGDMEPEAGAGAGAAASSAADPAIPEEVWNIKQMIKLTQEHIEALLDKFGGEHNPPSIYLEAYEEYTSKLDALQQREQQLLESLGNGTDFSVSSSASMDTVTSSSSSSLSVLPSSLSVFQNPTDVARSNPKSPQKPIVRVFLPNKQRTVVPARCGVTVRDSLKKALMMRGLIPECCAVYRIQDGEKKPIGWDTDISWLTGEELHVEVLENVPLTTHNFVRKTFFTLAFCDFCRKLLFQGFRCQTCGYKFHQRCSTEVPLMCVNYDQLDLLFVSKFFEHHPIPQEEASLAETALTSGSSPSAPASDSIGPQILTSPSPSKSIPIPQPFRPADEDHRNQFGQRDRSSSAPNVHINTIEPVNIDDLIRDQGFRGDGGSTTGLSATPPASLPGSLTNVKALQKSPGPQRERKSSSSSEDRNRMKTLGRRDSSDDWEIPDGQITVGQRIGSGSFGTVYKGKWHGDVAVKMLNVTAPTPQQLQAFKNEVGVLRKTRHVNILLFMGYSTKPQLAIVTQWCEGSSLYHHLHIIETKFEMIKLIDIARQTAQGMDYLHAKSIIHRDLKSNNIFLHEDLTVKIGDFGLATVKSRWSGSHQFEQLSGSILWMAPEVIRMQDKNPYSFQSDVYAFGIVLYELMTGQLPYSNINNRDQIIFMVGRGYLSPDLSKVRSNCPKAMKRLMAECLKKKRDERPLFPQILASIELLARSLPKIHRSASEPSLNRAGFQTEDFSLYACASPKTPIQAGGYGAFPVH

| SMILES | % control, BRAF (DiscoverX) (BRAF) | % control, EGFR (DiscoverX) (EGFR) | % control, ErbB2 (DiscoverX) (ErbB2) | % control, VEGFR2 (DiscoverX) (VEGFR2) | % ctrl. activity at 10 µM, BRAF (DiscoverX), printed as symbol (BRAF; 10 µM, Table 3) |
| --- | --- | --- | --- | --- | --- |
| CCCCn1nnnc1CN1CCc2nn(CC)c(=O)cc2C1 [K001MM005] | 99 % control | 100 % control | 100 % control | 100 % control | – |
| CC(C)OCC(O)CN1CCN(C(=O)c2cccc(Cl)c2)CC1 (stereo not drawn) [K001MM002] | 89 % control | 97 % control | 92 % control | 100 % control | – |
| CC1Oc2ccc(Nc3ncnc4c3oc3ccccc34)cc2NC1=O (stereo not drawn) [K001MM011] | 100 % control | – | – | 99 % control | – ^d (percent control activity ≥ 99%, i.e., no measurable inhibition) |
| Cc1ccccc1Cn1cnc2c(nnn2-c2ccccc2)c1=O [K001MM003] | 95 % control | 99 % control | 99 % control | 100 % control | – |
| Nc1nc(N2CCC[C@H](Cc3nc4ccccc4[nH]3)C2)c2nc[nH]c2n1 [K001MM010] | 100 % control | 95 % control | 90 % control | 97 % control | – |
| Cc1ccc(NC(=O)COC(=O)c2cc(=O)[nH]c3ccccc23)cc1 [K001MM012] | 100 % control | 90 % control | 100 % control | 91 % control | – |
| CCOCC(C)(C)NC(=O)Nc1cc(F)ccc1OC [K001MM006] | 100 % control | 96 % control | 100 % control | 100 % control | – |
| COCCNC(=O)NC(C)Cc1ccc(O)cc1 (stereo not drawn) [K001MM004] | 100 % control | 100 % control | 100 % control | 100 % control | – |
| Cc1cccc(NC(=O)N[C@H](C)[C@H](C)N2CCOCC2)n1 [K001MM007] | 87 % control | 90 % control | 94 % control | 100 % control | – |
| Cc1cc(COC(=O)c2cnc3c(cnn3Cc3ccccc3)c2)on1 [K001MM013] | 100 % control | 100 % control | 94 % control | 90 % control | – |

— publication PMC7865522, “Analyzing Kinase Similarity in Small Molecule and Protein Structural Space to Explore the Limits of Multi-Target Screening” (Molecules, 2021)
